Laboratory results as given in patent publication US6479528B1, “Methods for inhibiting or reversing tau filament formation polymerization” (Neuronautics, Inc., priority 2001, dated 2002).
Values joined by “and” are separate entries in the source; they are usually repeats but may differ in a detail not shown here. Equal entries are not always repeated. “Also recorded” adds a separate entry of the source. Where two headings read alike, the source gives them in different places.

Columns and labels:
recombinant human htau40 = molecular target: T1, recombinant human htau40 (Homo sapiens, UniProt P10636); assay: Thioflavin S fluorescence assay of arachidonic acid-induced tau polymerization; assay type: biochemical
T1 construct: synthetic straight filaments prepared from recombinant full-length tau; made in house
T1 sequence (P10636 1-441 isoform P10636-8): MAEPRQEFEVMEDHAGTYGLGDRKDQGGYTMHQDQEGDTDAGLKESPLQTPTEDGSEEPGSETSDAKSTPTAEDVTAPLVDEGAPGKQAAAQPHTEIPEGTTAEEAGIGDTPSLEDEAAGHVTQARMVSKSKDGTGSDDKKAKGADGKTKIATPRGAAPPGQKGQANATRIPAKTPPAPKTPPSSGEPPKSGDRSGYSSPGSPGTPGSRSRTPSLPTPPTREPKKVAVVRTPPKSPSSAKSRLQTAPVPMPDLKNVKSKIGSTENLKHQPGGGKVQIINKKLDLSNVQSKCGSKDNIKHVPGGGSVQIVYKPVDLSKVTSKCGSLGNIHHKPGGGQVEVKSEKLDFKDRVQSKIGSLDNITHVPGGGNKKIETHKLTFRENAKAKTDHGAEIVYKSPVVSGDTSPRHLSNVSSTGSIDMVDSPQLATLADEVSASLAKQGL
Description: (§1) Tau Polymerization. Purified isoforms of tau were polymerized as described previously (Wilson et al., Am. J. Pathol. 150: 2181 (1997); King et al., Biochemistry 38: 14851 (1999); King et al., J. Neurochem. 74: 1749 (2000)). Briefly, 2-8 mM (final concentration) htau40 or mutant htau40^C291A, C322A was incubated at room temperature in the presence or absence of 2-[[4-(dimethylamino)phenyl]azo]-6-methoxylbenzothiazole (compound I′) with polymerization buffer (10 mM 4-[2-hydroxyethyl]-1-piperazineethanesulfonic acid, 100 mM NaCl, and 5 mM DTT) containing 4 mM thioflavin S. Polymerization was induced by the addition of arachidonic acid (75-100 mM) and continued until analyzed by fluorescence or electron microscopy assays described below. When present, compound I′ final concentration varied from 0.05-2 mM. Control reactions were normalized for DMSO vehicle, which was limited to 5% in all reactions.
(§2) Fluorescence. Tau aggregation and disassembly were monitored by following thioflavin S fluorescence as described previously (King et al., 1999). Inhibitory activity of compound I′ was quantified by fitting the resultant data to the relationship
A=A0+(Amax−A0)/[1+10^(log IC50−logX)]
where A and A0 are blank-adjusted fluorescence in the presence and absence of inhibitor (at concentration X), respectively. IC50 values were calculated using the nonlinear regression algorithm of GRAPHPAD PRISM (GraphPad Software Inc.).
Inhibition of tau Polymerization. […] 31, 2000. 2-[[4-(Dimethylamino)phenyl]azo]-6-methoxylbenzothiazole (compound I′), an uncharged (at physiological pH) member of the azo dye family that includes Congo Red, was identified as having inhibitory activity against htau40.
The effect of compound I′ on polymerization of htau40 (2 mM) was quantified using a thioflavin S (2-4 mM) fluorescence assay (King et al., 1999).

[1] = tested on: Tau filaments isolated from AD brain; assay: Disassembly of authentic tau filaments, electron microscopy; assay type: biochemical, human; conditions: 2 mM compound; 20 min incubation; filaments 0.03 mg/ml
Description: The ability of compound I′ (2 mM) to depolymerize authentic filaments (0.033 mg/ml) was assayed as above except that timepoints were limited to 0, 10, and 20 min post addition.
Transmission Electron Microscopy. Aliquots (50 ml) of polymerization and depolymerization reactions were removed, fixed with glutaraldehyde (2%), and adsorbed (1 min) onto 300 mesh formvar/carbon-coated copper grids (Electron Microscopy Sciences; Ft. Washington, Pa.). The resultant grids were washed with water, stained (1 min) with 2% uranyl acetate (Electron Microscopy Sciences), washed again with water, blotted dry, and viewed in a Phillips CM 12 microscope operated at 65 kV. Four to six random images from each experimental condition were captured on film at either 13,000× or 22,000× magnification, digitized, calibrated, and imported into Optimas 6.5.1 for quantitation of filament length and number as described previously (King et al., 2000). Individual filaments defined as any object greater than 50 nm in its long axis were counted manually. Counts from each of the 4 to 6 random images per condition are reported as an average±standard deviation for both filament length and number. Length distributions were quantified in 100 nm-wide bins, beginning with 50-150 nm lengths and continuing 151-250 nm, 251-350 nm, etc.
Authentic PHF Disassembly. […]

Aβ1-40 = molecular target: T2, Aβ1-40 (Homo sapiens, UniProt P05067); assay: Aβ1-40 aggregation, turbidity at 350 nm; assay type: biochemical; conditions: 20 μM (20 mM in the source) compound, stoichiometric with Aβ
T2 construct: Stock solutions of Aβ1-40 (Bachem; Philadelphia, Pa.) were prepared in DMSO; purchased Bachem
T2 sequence (P05067 672-711 limits assumed): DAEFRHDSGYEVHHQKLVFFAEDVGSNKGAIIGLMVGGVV
Description: Aβ1-40 Aggregation. Stock solutions of Aβ (1 mM) were prepared in DMSO and filtered (0.2 mM cutoff). Aggregation was initiated by diluting the Aβb stock solution to 20 mM final concentration in aggregation buffer (150 mM NaCl, 10 mM 2-[N-morpholino]ethanesulfonic acid, pH 6.2; final volume 100 mL). Turbidity resulting from Aβ aggregation in the presence (20 mM final concentration) and absence of compound I′ was monitored as a function of time in a Beckman DU640B spectrophotometer at 350 nm versus a DMSO vehicle blank (Snyder et al., Biophys. J. 67: 1216 (1994); Evans et al., Proc. Natl. Acad. Sci. USA 92: 763 (1995)). Cuvettes were rapidly inverted before each reading.
Selectivity of tau Polymerization Antagonism. […] To determine whether amyloid binding was accompanied by polymerization inhibitory activity, the ability of compound I′ to inhibit spontaneous Aβ1-40 assembly was examined. In the absence of ligand, Aβ1-40 (20 mM) polymerized spontaneously after a lag of 1 hour (FIG. 6).

htau40^C291A, C322A = molecular target: T3, htau40^C291A, C322A (Homo sapiens, UniProt P10636, C608A/C639A); assay: Electron microscopy assay of tau filament formation; assay type: biochemical; conditions: 200 nM compound (1:40 molar ratio relative to tau), 8 µM htau40^C291A
T3 construct: synthetic straight filaments prepared from recombinant full-length tau; made in house
T3 sequence (P10636 1-441 isoform P10636-8 C291A/C322A): as the sequence (P10636 1-441 isoform P10636-8) above, with C291A, C322A counted along it
Description: as §1, with “Control reactions were normalized for DMSO vehicle, which was limited to 5% in all reactions.” left out
Transmission Electron Microscopy. […] Four to six random images from each experimental condition were captured on film at either 13,000× or 22,000× magnification, digitized, calibrated, and imported into Optimas 6.5.1 for quantitation of filament length and number as described previously (King et al., 2000). Individual filaments defined as any object greater than 50 nm in its long axis were counted manually. […] Length distributions were quantified in 100 nm-wide bins, beginning with 50-150 nm lengths and continuing 151-250 nm, 251-350 nm, etc. […]

[2] = molecular target: T4, synthetic tau filaments (htau40) (Homo sapiens, UniProt P10636); assay: Disassembly of preassembled synthetic tau filaments, dose response; assay type: biochemical; conditions: filaments assembled 3 hours; read-out: IC50, dose response on preassembled tau filaments (data not shown)
T4 construct: synthetic straight filaments prepared from recombinant full-length tau; made in house
T4 sequence (P10636 1-441 isoform P10636-8): as the sequence (P10636 1-441 isoform P10636-8) above
Description: (§3) Tau Depolymerization. Solutions of purified htau40 or htau40^C291A, C322A (8 mM) were polymerized as described above for 3.5 hours. To assay dilution-mediated depolymerization, aliquots (50 ml) of reaction product were injected into a stirred quartz cuvette containing 1 ml of polymerization buffer with 4 mM thioflavin S and fluorescence decay followed as a function of time (room temperature). When present, arachidonic acid was 50 mM and tau was held at 2 mM.
To assay inhibitor-mediated depolymerization, compound I′ was added to polymerized tau to a final concentration of 0.2 mM into two separate microcentrifuge tubes. Aliquots were removed from each sample after 10, 20, 30, 45, 60 minutes incubation and subjected to fluorescence or electron microscopy assays described below. […]
as §2
To determine whether compound I′ also could destabilize mature filaments and mimic the depolymerization observed in dilution experiments, tau filaments assembled in the presence of thioflavin S for 3 hours under standard conditions were incubated in the presence or absence of compound I′ (200 nM) and examined after various times by electron microscopy and fluorescence.

[3] = molecular target: T5, htau40^C291A, C322A filaments (Homo sapiens, UniProt P10636, C608A/C639A); assay: Inhibitor-mediated depolymerization of preassembled synthetic tau filaments, electron microscopy time course; assay type: biochemical
T5 construct: synthetic straight filaments prepared from recombinant full-length tau; made in house
T5 sequence (P10636 1-441 isoform P10636-8 C291A/C322A): as the sequence (P10636 1-441 isoform P10636-8) above, with C291A, C322A counted along it
Description: as §3
To assay inhibitor-mediated depolymerization, compound I′ was added to polymerized tau to a final concentration of 0.2 mM into two separate microcentrifuge tubes. Aliquots were removed from each sample after 10, 20, 30, 45, 60 minutes incubation and subjected to fluorescence or electron microscopy assays described below. Control (no compound I′) reactions were normalized for DMSO vehicle, which was limited to 5% in all reactions.
Transmission Electron Microscopy. Aliquots (50 ml) of polymerization and depolymerization reactions were removed, fixed with glutaraldehyde (2%), and adsorbed (1 min) onto 300 mesh formvar/carbon-coated copper grids (Electron Microscopy Sciences; Ft. Washington, Pa.). […] Four to six random images from each experimental condition were captured on film at either 13,000× or 22,000× magnification, digitized, calibrated, and imported into Optimas 6.5.1 for quantitation of filament length and number as described previously (King et al., 2000). Individual filaments defined as any object greater than 50 nm in its long axis were counted manually. […] Length distributions were quantified in 100 nm-wide bins, beginning with 50-150 nm lengths and continuing 151-250 nm, 251-350 nm, etc.
To determine whether compound I′-mediated tau depolymerization proceeded by an endwise mechanism, htau40^C291A, C322A (4 mM) was polymerized over a 3.5 hour period after which time compound I′ (200 nM) or DMSO vehicle alone was added and filament lengths were measured over a 1 hour “chase” by electron microscopy. […]

[4] = Charge state at physiological pH; assay type: physicochemical
Ab fibrils = Ab fibrils (Homo sapiens, UniProt P05067); conditions: cited from earlier work
Sequence of Ab fibrils (P05067 672-713 limits assumed): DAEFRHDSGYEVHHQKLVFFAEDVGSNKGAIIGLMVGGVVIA

[5] = approximate values given in the description, read-out: IC50, arachidonic acid polymerization of full length tau protein
[6] = after 1 hour incubation with 200 nM compound

Q: For `Cc1cc(N=Nc2c(O)ccc3ccccc23)c(CCCC(=O)O)s1` [4-[3-(2-hydroxy-naphthalen-1-ylazo)-5-methyl-thiophen-2-yl]-butyric acid], which IC50 (recombinant human htau40; [5]) is on record?
A: ~0.7 µM

Q: For `CCC(=Cc1sc2ccc(OC)cc2[n+]1CCO)C=C1Sc2ccc(OC)cc2N1CCO` [3-(2-hydroxy-ethyl)-2-{2-[3-(2-hydroxyl-ethyl)-5-methoxy-3H-benzothiazol-2-ylidenemethyl]-but-1-enyl}-5-methoxy-benzothiazol-3-ium], which IC50 (recombinant human htau40; [5]) is on record?
A: ~0.04 µM

Q: With thioflavin S [reference compound] as the molecule, how does the “effect on tau polymerization at the concentration required for filament binding” value (recombinant human htau40; concentration about EC50 of binding) read?
A: not sufficient to inhibit or reverse tau polymerization

Q: For `COc1ccc2nc(/N=N/c3ccc(N(C)C)cc3)sc2c1` [compound I′, 2-[[4-(dimethylamino)phenyl]azo]-6-methoxylbenzothiazole], which “total filament length, % of DMSO vehicle control” value [1] is on record?
A: 14±9% and 10-50%

Q: And the “IC50 as % of the molar concentration of arachidonic acid” value (recombinant human htau40)?
A: < 0.1%

Q: And the IC50 (recombinant human htau40; [5])?
A: < 0.1 µM and ~0.06 µM

Q: And the IC50 (recombinant human htau40; arachidonic acid-induced, 3.5 h, room temperature, % of DMSO vehicle control fluorescence, read-out: IC50, inhibition of htau40 polymerization (thioflavin S fluorescence))?
A: 0.054 ± 0.006 µM

Q: And the “effect on Aβ1-40 polymerization / assembly kinetics” value (Aβ1-40)?
A: did not inhibit Aβ polymerization; also recorded: does not interfere with Aβ1-40 assembly; also recorded: did not alter Aβ1-40 assembly kinetics significantly

Q: What about the total filament number, % of control at 0.2 µM (htau40^C291A, C322A) of the same molecule?
A: 14.2 ± 0.6%

Q: And the “total filament number, % of control values” (htau40^C291A, C322A)?
A: 10-20%

Q: And the IC50 [2]?
A: 0.091 ± 0.013 µM

Q: What about the “initial first order rate of decrease of total filament length per field” value ([3]; 200 nM compound added to filaments polymerized 3.5 h) of the same molecule?
A: 0.042 min⁻¹

Q: And the “total filament length, % of vehicle only controls” value [3, 6]?
A: 21±6%

Q: And the “total filament number, % of vehicle only controls” value [3, 6]?
A: 84±26%

Q: What about the “charge at physiological pH” value [4] of the same molecule?
A: uncharged

Q: For `COc1ccc2nc(N=Nc3ccc(N(C)c4ccccc4)cc3)sc2c1` [[4-(6-methoxy-benzothiazol-2-ylazo)phenyl]-methylphenyl amine], which IC50 (recombinant human htau40; [5]) is on record?
A: ~0.06 µM

Q: Which IC50 (recombinant human htau40; [5]) does the source give for `CCN(CCO)c1ccc(N=Nc2nc3ccc(OC)cc3s2)cc1` [2-[[4-(N-ethyl-N-β-hydroxyethylamino)phenyl]azo]-6-methoxybenzothiazole] here?
A: ~0.06 µM

Q: Which IC50 (recombinant human htau40; [5]) does the source give for `O=C1Nc2ccccc2/C1=N/NC(=O)c1cc2ccccc2cc1O` [Compound III, 3-hydroxy-napthalene-2-carboxylic acid (2-oxo-1,2-dihydro-indol-3-ylidene)-hydrazide] here?
A: ~0.6 µM

Q: For `Nc1ccc(-c2nc3ccc(-c4nc5ccc(N)cc5[nH]4)cc3[nH]2)cc1` [Ro 90-7501], which “effect on Ab fibrils” value (Ab fibrils) is on record?
A: inhibit polymerization and promote disaggregation

Q: With `Cc1ccc(N=Nc2ccc(-c3ccc(N=Nc4ccc(C)c(C(=O)O)c4O)cc3)cc2)c(O)c1C(=O)O` [3-[4′-(3-carboxy-2-hydroxy4-methyl-cyclohexa-1,5-dienylazo)-biphenyl-4-ylazo]-2-hydroxy-6-methyl benzoic acid] as the molecule, how does the IC50 (recombinant human htau40; [5]) read?
A: ~0.4 µM

Q: With `CCN(CC)c1ccc(N=Nc2nc3ccc(OC)cc3s2)cc1` [2-[[4-(didethylamino)phenyl]azo]-6-methoxybenzothiazole] as the molecule, how does the IC50 (recombinant human htau40; [5]) read?
A: ~0.06 µM
